“Also recorded” adds a separate entry of the source.
Legend:
[1] = Sensory evaluation of the compounds in water; conditions: 2 g/L in water; 12 panelists
Method: The compounds ornithine, ornithyl-β-alanine, 1-deoxy-D-fructosyl-N-ornithine, 1-deoxy-D-fructosyl-N-ornithyl-β-alanine and 1-deoxy-2-pentulofuranos-1-yl-Ornithine (Rib-Orn) were each dissolved and diluted in water in a final concentration of 2 g/L. The solutions were then evaluated by 12 panelists, which were previously screened and selected for their sensory abilities.

[2] = Sensory evaluation of the compounds in a chicken soup base; conditions: for flavor impact in chicken soup base versus reference soup: ANOVA/LSD, alpha 5%; for Sensory inpact on chicken soup: chicken soup base, compounds added at 2 and 0.25 g/L, 12 panelists
Method: Chicken soups were prepared by dissolving 6 g chicken base powder (detailed recipe shown in Table 1), 1 g monosodium glutamate and 1 g of sodium chloride in 500 mL hot water. 1-Deoxy-D-fructosyl-N-ornithyl-β-alanine, N-ornithyl-β-alanine, 1-deoxy-D-fructosyl-N-ornithine or alternatively 1-deoxy-2-pentulofuranos-1-yl-Ornithine (Rib-Orn) were then added separately at 2 and 0.25 g/L final concentrations.
The sensory evaluation was carried out by 12 panelists, previously screened for their sensory abilities. The panelists assessed a maximum of 6 samples per session. They had Vittel water and crackers as mouth cleansers. In all the cases, the panelists were instructed to evaluate the samples for the following attributes: overall flavor persistency, meaty, grilled/popcorn-like, bread-like, sweet, bitter, and salty. The samples were coded with random 3-digit numbers according to a balanced presentation design, heated at approximately 65° C. and then presented in 40 ml brown plastic containers and under red light to minimize appearance bias (the serving was approximately 25 ml per sample).
The following statistical tests were used to analyze the sensory raw data: First, the Analysis of Variance (ANOVA) with two factors, products (fixed factor) and subject (random factor) was computed in order to determine if there was any difference among samples. The limit of significance (alpha risk) was set at 5%. […] The limit of significance (alpha risk) was set at 5%.

[3] = Comparison of soup bases containing Fru-orn versus the mixture of glucose and ornithine; conditions: 2 g/L (6.82 mmol/L), 6 panelists
Method: A first soup was prepared by adding 2 g/L (6.82 mmol/L) 1-deoxy-D-fructosyl-N-ornithine in the soup base described above. A second soup was prepared by adding same molar concentration of glucose and ornithine. The solutions were then evaluated by 6 panelists following the same procedure than described above.

[4] = Tomato soups with added compound (seasoning compositions); conditions: 2 g/L in tomato soup
Method: Tomato soups can be prepared by dissolving 6 g tomato base powder as can be obtained in the commerce in 500 mL hot water. 1-deoxy-D-fructosyl-N-ornithine or alternatively 1-Deoxy-D-fructosyl-N-ornithyl-β-alanine can be added at a concentration of 2 g/L to the soups in order to improve their taste and flavor profile.

[5] = cited from earlier work; for orosensation effect of subthreshold concentrations: together with L-glutamic acid and sodium and/or potassium ions, Dunkel and Hofmann 2009

SMILES: N[C@@H](CCCNCC1(O)OCC(O)C(O)C1O)C(=O)O (stereo partly drawn) [Fru-Orn, 1-deoxy-D-fructosyl-N-ornithine]
- Flavour property in water (2 g/L) [1]: salty
- flavor impact in chicken soup base versus reference soup ([2]; 0.25 g/L): bread flavors were significantly perceived
- flavor impact in chicken soup base versus reference soup ([2]; 2 g/L): grilled meat flavor and saltiness were significantly enhanced
- Sensory inpact on chicken soup [2]: grilled/popcorn,; also recorded: bread, saltiness
- saltiness versus soup with same molar concentration of glucose and ornithine ([3]; tasted with nose-clip): more salty
- chicken flavor versus soup with same molar concentration of glucose and ornithine ([3]; tasted without nose-clip): greater chicken flavor
- grilled savory flavor of tomato soup versus reference soup [4]: more pronounced grilled savory flavor
- perceived saltiness of tomato soup versus reference soup [4]: slightly more salty

SMILES: N[C@@H](CCCNCC1(O)OC[C@@H](O)[C@@H](O)[C@@H]1O)C(=O)NCCC(=O)O (stereo partly drawn) [Fru-Orn-βala, 1-deoxy-D-fructosyl-N-ornithyl-β-alanine]
- Flavour property in water (2 g/L) [1]: sweet, bread
- grilled and bread attributes of chicken soup versus soup with orn-ala ([2]; 2 g/L each): enhanced significantly; also recorded: increases the desired grilled meat and bread flavor note
- overall flavor persistency of chicken soup versus soup with orn-ala ([2]; 2 g/L each): significantly different
- perceived bitterness of chicken soup versus soup with orn-ala ([2]; 2 g/L each): significantly decreasing; also recorded: reducing overall bitterness
- Sensory inpact on chicken soup [2]: grilled/popcorn,; also recorded: bread, saltiness
- grilled savory flavor of tomato soup versus reference soup [4]: more pronounced grilled savory flavor
- perceived saltiness of tomato soup versus reference soup [4]: slightly more salty

SMILES: Cn1cncc1C[C@H](NC(=O)CCN)C(=O)O [L-anserine]
- orosensation effect of subthreshold concentrations [5]: enhance the typical thick-sour orosensation and white-meaty character

SMILES: NCCC(=O)N[C@@H](Cc1cnc[nH]1)C(=O)O [L-carnosine]
- orosensation effect of subthreshold concentrations [5]: enhance the typical thick-sour orosensation and white-meaty character

SMILES: NCCC[C@H](N)C(=O)NCCS(=O)(=O)O [L-ornithinyltaurine]
- bitter masking effects against potassium salts ([5]; J. P. Ley 2008): bitter masking effects
- taste produced ([5]; Tamura et al. 1989): salty taste

SMILES: NCCC[C@H](N)C(=O)O [Orn, L-ornithine]
- off-taste inhibition in combination with bitter branched chain amino acids ([5]; J. P. Ley 2008): off-taste inhibitor

SMILES: NCCC[C@H](N)C(=O)NCCC(=O)O [Orn-ala, N-ornithyl-β-alanine, reference compound]
- Flavour property in water (2 g/L) [1]: astringent
- flavor impact in chicken soup base versus reference soup ([2]; 2 g/L): no statistically significant differences
- Sensory inpact on chicken soup [2]: none
- bitter masking effects against potassium salts ([5]; J. P. Ley 2008): bitter masking effects

SMILES: N[C@@H](CCCNCC1(O)OC[C@@H](O)[C@H]1O)C(=O)O (stereo partly shown) [Rib-Orn, 1-deoxy-2-pentulofuranos-1-yl-ornithine]
- Flavour property in water (2 g/L) [1]: astringent, sour, metallic and slightly sweet; also recorded: Astringent,
- flavor impact in chicken soup base versus reference soup ([2]; 0.25 g/L): both baked bread flavor and umami taste were significantly enhanced
- Sensory inpact on chicken soup [2]: Grilled/bread,; also recorded: umami

SMILES: NCCC(=O)NCC(=O)O [β-alanylglycine]
- orosensation effect of subthreshold concentrations [5]: enhance the typical thick-sour orosensation and white-meaty character
